Source: the supplement of paper PMC10307832

Key:
Test in all cases: relative viability (nuclei count vs DMSO), 5 days (fraction); higher = more cells survive
[1] = system: COR-L23
Outline: (§1)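 Nuclei were stained with Hoechst during a one-step fixation (final 0.05% Triton X-100, 1% formaldehyde, 1 ug/ml Hoechst) carried out 5 days after dosing, then counted on 4× images. The cells, lung cancer lines in 1536-well plates, had been dosed by pin tool the day after seeding with one drug alone or a fixed anchor-drug dose plus five library-drug doses (not always all listed) in √10 steps. Relative viability is the nuclei count in treated wells divided by that in vehicle wells, and each value is the median of duplicate plates.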

[2] = system: ChaGo-K-1
Outline: as §1

[3] = system: EPLC-272H
Outline: as §1

[4] = system: H3255
Outline: as §1

[5] = system: HARA
Outline: as §1

[6] = system: HCC-78
Outline: as §1

[7] = system: HOP-62
Outline: as §1

[8] = system: LCLC-97TM1
Outline: as §1

[9] = system: LXF-289
Outline: as §1

[10] = system: NCI-H1395
Outline: as §1

[11] = system: NCI-H1437
Outline: as §1

[12] = system: NCI-H1650
Outline: as §1

[13] = system: NCI-H1666
Outline: as §1

[14] = system: NCI-H1793
Outline: as §1

[15] = system: NCI-H1944
Outline: as §1

[16] = system: NCI-H2085
Outline: as §1

[17] = system: NCI-H2087
Outline: as §1

[18] = system: NCI-H2126
Outline: as §1

[19] = system: NCI-H3122
Outline: as §1

[20] = system: NCI-H441
Outline: as §1

[21] = system: NCI-H596
Outline: as §1

[22] = system: NCI-H661
Outline: as §1

[23] = system: PC-14
Outline: as §1

CN1CCN(CCOc2cc(OC3CCOCC3)c3c(Nc4c(Cl)ccc5c4OCO5)ncnc3c2)CC1 [Saracatinib] + Nc1ncn([C@H]2C[C@H](O)[C@@H](CO)O2)c(=O)n1 [Decitabine] (partner 2 µM)
relative viability ([1]; first compound 0.02 µM): 0.44 | relative viability ([1]; first compound 0.2 µM): 0.385 | relative viability ([1]; first compound 0.6325 µM): 0.419 | relative viability ([1]; first compound 2 µM): 0.335 | relative viability ([2]; first compound 0.02 µM): 0.577 | relative viability ([2]; first compound 0.2 µM): 0.427 | relative viability ([2]; first compound 0.6325 µM): 0.579 | relative viability ([2]; first compound 2 µM): 0.542 | relative viability ([3]; first compound 0.02 µM): 0.388 | relative viability ([3]; first compound 0.2 µM): 0.361 | relative viability ([3]; first compound 0.6325 µM): 0.442 | relative viability ([3]; first compound 2 µM): 0.37 | relative viability ([4]; first compound 0.02 µM): 0.605 | relative viability ([4]; first compound 0.2 µM): 0.587 | relative viability ([4]; first compound 0.6325 µM): 0.579 | relative viability ([4]; first compound 2 µM): 0.209 | relative viability ([5]; first compound 0.02 µM): 0.605 | relative viability ([5]; first compound 0.2 µM): 0.367 | relative viability ([5]; first compound 0.6325 µM): 0.465 | relative viability ([5]; first compound 2 µM): 0.381 | relative viability ([6]; first compound 0.02 µM): 0.524 | relative viability ([6]; first compound 0.6325 µM): 0.736 | relative viability ([6]; first compound 2 µM): 0.686 | relative viability ([7]; first compound 0.02 µM): 0.222 | relative viability ([7]; first compound 0.2 µM): 0.188 | relative viability ([7]; first compound 0.6325 µM): 0.197 | relative viability ([7]; first compound 2 µM): 0.185 | relative viability ([8]; first compound 0.02 µM): 0.244 | relative viability ([8]; first compound 0.2 µM): 0.18 | relative viability ([8]; first compound 0.6325 µM): 0.215 | relative viability ([8]; first compound 2 µM): 0.178 | relative viability ([9]; first compound 0.02 µM): 0.327 | relative viability ([9]; first compound 0.2 µM): 0.314 | relative viability ([9]; first compound 0.6325 µM): 0.387 | relative viability ([9]; first compound 2 µM): 0.36 | relative viability ([10]; first compound 0.02 µM): 0.752 | relative viability ([10]; first compound 0.2 µM): 0.753 | relative viability ([10]; first compound 0.6325 µM): 0.737 | relative viability ([10]; first compound 2 µM): 0.635 | relative viability ([11]; first compound 0.02 µM): 0.608 | relative viability ([11]; first compound 0.2 µM): 0.601 | relative viability ([11]; first compound 0.6325 µM): 0.64 | relative viability ([11]; first compound 2 µM): 0.622 | relative viability ([12]; first compound 0.02 µM): 0.428 | relative viability ([12]; first compound 0.2 µM): 0.519 | relative viability ([12]; first compound 0.6325 µM): 0.431 | relative viability ([12]; first compound 2 µM): 0.365 | relative viability ([13]; first compound 0.02 µM): 0.797 | relative viability ([13]; first compound 0.2 µM): 0.671 | relative viability ([13]; first compound 0.6325 µM): 0.846 | relative viability ([13]; first compound 2 µM): 0.756 | relative viability ([14]; first compound 0.02 µM): 0.543 | relative viability ([14]; first compound 0.2 µM): 0.338 | relative viability ([14]; first compound 0.6325 µM): 0.504 | relative viability ([14]; first compound 2 µM): 0.403 | relative viability ([15]; first compound 0.02 µM): 0.423 | relative viability ([15]; first compound 0.2 µM): 0.356 | relative viability ([15]; first compound 0.6325 µM): 0.434 | relative viability ([15]; first compound 2 µM): 0.371 | relative viability ([16]; first compound 0.02 µM): 0.531 | relative viability ([16]; first compound 0.2 µM): 0.478 | relative viability ([16]; first compound 0.6325 µM): 0.602 | relative viability ([16]; first compound 2 µM): 0.469 | relative viability ([17]; first compound 0.02 µM): 0.322 | relative viability ([17]; first compound 0.2 µM): 0.226 | relative viability ([17]; first compound 0.6325 µM): 0.27 | relative viability ([17]; first compound 2 µM): 0.293 | relative viability ([18]; first compound 0.02 µM): 0.61 | relative viability ([18]; first compound 0.2 µM): 0.567 | relative viability ([18]; first compound 0.6325 µM): 0.551 | relative viability ([18]; first compound 2 µM): 0.454 | relative viability ([19]; first compound 0.02 µM): 0.365 | relative viability ([19]; first compound 0.2 µM): 0.375 | relative viability ([19]; first compound 0.6325 µM): 0.314 | relative viability ([19]; first compound 2 µM): 0.294 | relative viability ([20]; first compound 0.02 µM): 0.221 | relative viability ([20]; first compound 0.2 µM): 0.232 | relative viability ([20]; first compound 0.6325 µM): 0.212 | relative viability ([20]; first compound 2 µM): 0.243 | relative viability ([21]; first compound 0.02 µM): 0.912 | relative viability ([21]; first compound 0.2 µM): 0.793 | relative viability ([21]; first compound 0.6325 µM): 0.951 | relative viability ([21]; first compound 2 µM): 0.821 | relative viability ([22]; first compound 0.02 µM): 0.563 | relative viability ([22]; first compound 0.2 µM): 0.434 | relative viability ([22]; first compound 0.6325 µM): 0.534 | relative viability ([22]; first compound 2 µM): 0.403 | relative viability ([23]; first compound 0.02 µM): 0.219 | relative viability ([23]; first compound 0.2 µM): 0.182 | relative viability ([23]; first compound 0.6325 µM): 0.158 | relative viability ([23]; first compound 2 µM): 0.118
